Paper PMC6208970, “Linking cytochrome P450 enzymes from Mycobacterium tuberculosis to their cognate ferredoxin partners” (Applied Microbiology and Biotechnology, 2018)

What was measured:
CYP142A1 = molecular target: T1, CYP142A1 (Mycobacterium tuberculosis, UniProt P9WPL5); assay type: biochemical
T1 construct: gene cyp142

CYP125A1 = molecular target: T2, CYP125A1 (Mycobacterium tuberculosis, UniProt P9WPP1); assay: reconstituted turnover, GC-MS detection of 27-hydroxycholesterol; assay type: biochemical; details: 0.5 μM CYP, 50 μM cholesterol in methyl-β-cyclodextrin; FdrA or FprA with FdxD or FdxE; pH 7.4; 37 °C
T2 construct: gene cyp125
T2 sequence (P9WPP1 whole entry): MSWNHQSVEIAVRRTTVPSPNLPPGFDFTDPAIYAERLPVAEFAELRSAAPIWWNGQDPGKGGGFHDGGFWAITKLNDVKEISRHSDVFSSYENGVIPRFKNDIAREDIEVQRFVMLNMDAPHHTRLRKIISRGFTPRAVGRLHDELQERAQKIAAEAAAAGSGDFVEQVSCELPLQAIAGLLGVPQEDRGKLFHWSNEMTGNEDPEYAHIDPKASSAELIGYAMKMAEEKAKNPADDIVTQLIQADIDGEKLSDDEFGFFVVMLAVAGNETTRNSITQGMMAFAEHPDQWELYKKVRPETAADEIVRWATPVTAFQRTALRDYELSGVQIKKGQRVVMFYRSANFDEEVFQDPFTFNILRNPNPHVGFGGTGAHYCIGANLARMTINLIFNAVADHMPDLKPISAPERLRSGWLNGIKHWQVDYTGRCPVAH

CYP124A1 = molecular target: T3, CYP124A1 (Mycobacterium tuberculosis, UniProt P9WPP3); assay: as above; assay type: biochemical; details: 0.5 μM CYP, 50 μM cholesterol in methyl-β-cyclodextrin; FdrA or FprA with FdxD or FdxE; pH 7.4; 37 °C
T3 construct: gene cyp124
T3 sequence (P9WPP3 whole entry): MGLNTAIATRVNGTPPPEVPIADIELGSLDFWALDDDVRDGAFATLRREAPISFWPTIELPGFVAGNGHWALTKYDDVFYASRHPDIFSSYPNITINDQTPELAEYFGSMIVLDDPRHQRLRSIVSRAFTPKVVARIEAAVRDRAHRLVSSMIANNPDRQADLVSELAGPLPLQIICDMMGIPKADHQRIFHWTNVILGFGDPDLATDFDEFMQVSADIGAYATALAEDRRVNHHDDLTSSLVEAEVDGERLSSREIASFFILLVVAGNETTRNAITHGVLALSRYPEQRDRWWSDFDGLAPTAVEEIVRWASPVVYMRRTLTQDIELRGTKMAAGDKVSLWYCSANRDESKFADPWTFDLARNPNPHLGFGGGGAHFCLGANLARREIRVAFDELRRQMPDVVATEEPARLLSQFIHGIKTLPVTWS

[1] = molecular target: CYP143A1 (Mycobacterium tuberculosis) (UniProt P9WPL2); details: cited from earlier work
Sequence of CYP143A1 (Mycobacterium tuberculosis) (P9WPL2 whole entry): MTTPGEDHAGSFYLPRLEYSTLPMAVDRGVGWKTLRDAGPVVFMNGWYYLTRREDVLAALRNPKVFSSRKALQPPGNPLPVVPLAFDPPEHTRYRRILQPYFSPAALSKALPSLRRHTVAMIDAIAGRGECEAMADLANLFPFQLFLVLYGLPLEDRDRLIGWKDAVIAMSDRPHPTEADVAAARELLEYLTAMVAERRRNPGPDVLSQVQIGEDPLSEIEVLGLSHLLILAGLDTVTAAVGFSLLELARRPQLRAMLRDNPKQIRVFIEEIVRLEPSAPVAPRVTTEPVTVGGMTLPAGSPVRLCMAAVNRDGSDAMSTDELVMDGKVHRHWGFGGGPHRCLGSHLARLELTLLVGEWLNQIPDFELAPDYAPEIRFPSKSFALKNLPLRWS

Sequence of ferredoxin Rv1786 (O53937 whole entry): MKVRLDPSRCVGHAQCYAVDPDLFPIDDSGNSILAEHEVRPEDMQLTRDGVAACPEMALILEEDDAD
T1 sequence (P9WPL5 whole entry): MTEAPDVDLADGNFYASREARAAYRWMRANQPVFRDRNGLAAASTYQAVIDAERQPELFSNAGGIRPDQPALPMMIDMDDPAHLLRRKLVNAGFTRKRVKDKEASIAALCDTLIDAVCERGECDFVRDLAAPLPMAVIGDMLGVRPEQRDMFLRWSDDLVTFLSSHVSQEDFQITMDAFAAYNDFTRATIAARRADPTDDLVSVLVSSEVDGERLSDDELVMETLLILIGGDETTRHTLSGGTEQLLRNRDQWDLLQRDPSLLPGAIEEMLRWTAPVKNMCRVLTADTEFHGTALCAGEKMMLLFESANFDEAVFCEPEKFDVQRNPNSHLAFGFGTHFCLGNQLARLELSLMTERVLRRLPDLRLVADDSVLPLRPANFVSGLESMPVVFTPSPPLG

Compound	reconstituted turnover, GC-MS detection of 27-hydroxycholesterol (CYP142A1)	reconstituted turnover, GC-MS detection of 27-hydroxycholesterol (CYP125A1)	reconstituted turnover, GC-MS detection of 27-hydroxycholesterol (CYP124A1)	Kd [1] [nM]
CC(C)CCC[C@@H](C)[C@H]1CC[C@H]2[C@@H]3CC=C4C[C@@H](O)CC[C@]4(C)[C@H]3CC[C@]12C [cholesterol]	CYP142A1 was found to be the most efficient in cholesterol conversion	only FdxD and FdxE were able to support cholesterol conversion	only FdxD and FdxE were able to support cholesterol conversion	–
ferredoxin Rv1786 (from UniProt O53937)	–	–	–	337
